Values after ≈ are worked out from the molar mass of the structure shown. Like-named read-outs stand apart in the source and are kept apart here.
Experiments:
CYP1A2 = target: T1, CYP1A2 (Homo sapiens, UniProt P05177); experiment: CYP1A2 inhibition
T1 sequence (P05177 1-516): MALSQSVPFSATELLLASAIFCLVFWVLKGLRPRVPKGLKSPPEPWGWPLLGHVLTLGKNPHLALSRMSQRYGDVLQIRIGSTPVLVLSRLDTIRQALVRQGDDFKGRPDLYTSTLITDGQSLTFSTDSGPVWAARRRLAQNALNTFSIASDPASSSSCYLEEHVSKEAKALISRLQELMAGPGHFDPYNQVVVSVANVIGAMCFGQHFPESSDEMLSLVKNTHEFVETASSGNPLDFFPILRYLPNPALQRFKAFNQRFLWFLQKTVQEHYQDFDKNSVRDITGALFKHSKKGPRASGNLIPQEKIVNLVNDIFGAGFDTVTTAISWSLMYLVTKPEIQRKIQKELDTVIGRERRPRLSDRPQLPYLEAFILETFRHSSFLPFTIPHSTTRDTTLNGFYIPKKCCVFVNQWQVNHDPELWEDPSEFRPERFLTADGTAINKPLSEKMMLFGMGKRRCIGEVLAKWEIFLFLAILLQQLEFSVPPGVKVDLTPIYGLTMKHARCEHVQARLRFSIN

CYP3A4 [1] = target: T2, CYP3A4 (Homo sapiens, UniProt P08684); experiment: CYP3A4 inhibition
[2] = Aqueous solubility, pION method; settings: Table 5, pION method
[3] = Pharmacokinetics in the rat, ip and iv
[4] = Plasma protein binding in three species
CYP2C9 = CYP2C9 (Homo sapiens, UniProt P11712); settings: read-out: CYP2C9 (IC50); ref Yu et al.[23]; cited from earlier work
CYP3A4 [5] = target: T2, CYP3A4; settings: read-out: CYP3A4 (IC50); ref Yu et al.[23]; cited from earlier work
[6] = human, rat, and mouse plasma, ref Yu et al.[23]; cited from earlier work
[7] = human (h) microsomes; ref Yu et al.[23]; cited from earlier work
[8] = ref Yu et al.[23]; cited from earlier work
[9] = ref Yu et al.[23]; cited from earlier work; remark: listed apart in the source

T2 sequence (P08684 whole entry): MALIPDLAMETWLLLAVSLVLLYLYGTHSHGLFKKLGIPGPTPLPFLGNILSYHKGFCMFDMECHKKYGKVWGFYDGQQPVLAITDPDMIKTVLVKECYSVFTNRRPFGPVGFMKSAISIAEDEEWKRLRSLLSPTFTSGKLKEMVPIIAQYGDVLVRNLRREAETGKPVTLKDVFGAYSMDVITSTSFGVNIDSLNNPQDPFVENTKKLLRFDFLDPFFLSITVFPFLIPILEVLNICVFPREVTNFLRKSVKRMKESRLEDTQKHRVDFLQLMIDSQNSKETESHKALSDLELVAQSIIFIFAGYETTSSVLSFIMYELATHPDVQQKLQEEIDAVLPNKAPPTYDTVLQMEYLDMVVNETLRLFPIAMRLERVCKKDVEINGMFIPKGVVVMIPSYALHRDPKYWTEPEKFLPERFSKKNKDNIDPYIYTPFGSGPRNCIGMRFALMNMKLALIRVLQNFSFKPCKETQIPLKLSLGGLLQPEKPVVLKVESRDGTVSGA
Sequence of CYP2C9 (P11712 whole entry): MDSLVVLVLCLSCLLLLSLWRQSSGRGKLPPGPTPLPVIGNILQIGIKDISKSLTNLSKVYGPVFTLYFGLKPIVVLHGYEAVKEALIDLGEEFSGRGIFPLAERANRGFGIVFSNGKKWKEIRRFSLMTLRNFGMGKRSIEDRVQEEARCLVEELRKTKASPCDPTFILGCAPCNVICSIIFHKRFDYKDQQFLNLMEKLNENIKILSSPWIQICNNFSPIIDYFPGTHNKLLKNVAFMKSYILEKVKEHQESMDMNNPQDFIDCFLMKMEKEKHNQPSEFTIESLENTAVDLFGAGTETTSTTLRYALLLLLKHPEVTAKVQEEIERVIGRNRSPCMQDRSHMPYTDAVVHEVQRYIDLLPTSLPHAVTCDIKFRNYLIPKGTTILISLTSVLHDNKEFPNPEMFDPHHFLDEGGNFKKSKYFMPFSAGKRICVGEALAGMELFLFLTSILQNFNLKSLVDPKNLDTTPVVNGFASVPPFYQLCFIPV

| Compound | IC50 (CYP1A2) | IC50 (CYP3A4 [1]) | solubility ([2]; pH 4, aqueous solubility (pH 4.0, μg/mL), pH 4.0, mean ± SD) | solubility ([2]; pH 7.4, aqueous solubility (pH 7.4, μg/mL), pH 7.4, mean ± SD) | time at which maximal plasma concentration was reached [3] | plasma concentration at the 12 h time point ([3]; highest dose (10 mg/kg), 12 h) | plasma protein binding [4] | IC50 (CYP2C9) | IC50 (CYP3A4 [5]) | plasma stability (three species) (% remaining at 120 min) [6] | microsomal stability (t1/2, min) [7] | simulated intestinal fluid (% remaining at 120 min) [8] | simulated gastric fluid (% remaining at 120 min) [9] |
| --- | --- | --- | --- | --- | --- | --- | --- | --- | --- | --- | --- | --- | --- |
| O=C(O)c1cc(-c2ccc(C34CCN(CC3)CC4)cc2)cc(-n2cc(-c3ccc(C(F)(F)F)cc3)nn2)c1 [Compound 18, 4′-(Quinuclidin-4-yl)-5-(4-(4-(trifluoromethyl)phenyl)-1H-1,2,3-triazol-1-yl)-[1,1′-biphenyl]-3-carboxylic Acid] | 14.1 µM | 9.94 µM | 14.4 ± 0.3 µg/mL (≈ 27.8 µM) | < 0.1 µg/mL | 3 to 4 h | 200 to 400 ng/kg | high | – | – | – | – | – | – |
| NC(=O)c1ccc(-c2cc(C(=O)O)cc(-n3cc(-c4ccc(C(F)(F)F)cc4)nn3)c2)cc1 [Compound 22] | – | – | – | – | – | – | – | > 30 µM | > 30 µM | 94–100% | 145 min | 100% | 100% |

From article PMC8040948 (Journal of medicinal chemistry, 2020)
